Data from US12162901B2, “N-acetylated sialic acids and related sialosides” (priority 2016, dated 2024).

Key:
BJA-B K20 cells = assay: Feeding of free sialic acids to BJA-B K20 cells, PToV probes, flow cytometry; assay type: cell-based, human; conditions: 1 mM, three days; PToV with active esterase
[1] = biological target: bovine coronavirus hemagglutinin-esterase (BCoV-Mebus-Fc, esterase inactivated) (Bovine coronavirus, UniProt P15776, S40A); assay: Sialoglycan microarray binding of BCoV-Mebus-Fc (esterase inactive); conditions: without esterase treatment (FIG. 3A)

With CC(=O)N[C@H]1[C@H]([C@H](O)[C@H](O)COC(C)=O)OC(O)(C(=O)O)C[C@@H]1O (stereo partly shown) [Neu5,9Ac2, 9-O-acetyl-N-acetylneuraminic acid] the “resistance of cell surface sialic acid to virus-hemagglutinin-esterase activity” value (BJA-B K20 cells) was “only Neu5Ac9NAc-fed ones were resistant”.
With CC(=O)N[C@H]1[C@H]([C@H](O)[C@H](O)COC(C)=O)O[C@@](O[C@H]2[C@@H](O)[C@@H](CO)O[C@@H](O[C@H]3[C@H](O)[C@@H](O)[C@H](OCCCN)O[C@@H]3CO)[C@@H]2O)(C(=O)O)C[C@@H]1O [Neu5,9Ac2α3Galβ4GlcβProNH2] the “binding of BCoV on glycan microarray” value [1] was “prefer binding”.
CC(=O)NC[C@@H](O)[C@@H](O)[C@@H]1OC(O)(C(=O)O)C[C@H](O)[C@H]1NC(C)=O (stereo partly drawn) [Neu5Ac9NAc, 5,9-Diacetamido-3,5,9-Trideoxy-D-glycero-D-galacto-2-nonulopyranosylonic Acid] was tested, and the “resistance of cell surface sialic acid to virus-hemagglutinin-esterase activity” value (BJA-B K20 cells) was “resistant to virus-hemagglutinin-esterase activity”.
With CC(=O)NC[C@@H](O)[C@@H](O)[C@@H]1O[C@@](O[C@H]2[C@@H](O)[C@@H](CO)O[C@@H](O[C@H]3[C@H](O)[C@@H](O)[C@H](OCCCN)O[C@@H]3CO)[C@@H]2O)(C(=O)O)C[C@H](O)[C@H]1NC(C)=O [Neu5Ac9NAcα3Galβ4GlcβProNH2, 3-Aminopropyl O-(5,9-Diacetamido-3,5,9-trideoxy-D-glycero-α-D-galacto-2-nonulopyranosylonic acid)-(2→3)-O-β-D-galactopyranosyl-(1→4)-β-D-glucopyranoside] the “binding of BCoV on glycan microarray” value [1] was “prefer binding”.
